One compound from patent publication US20110098219A1, “System for Curing Hepatic Cancer with Leptin” (KAOHSIUNG MEDICAL UNIVERSITY, priority 2009, published 2011) can be followed below.

Experiment [1] concerns STAT- and MAPK-related signal paths. Nature of the experiment: Protein expression of STAT- and MAPK-related signal paths in normal liver cell line. It is filed as cell-based. As to the method: Please refer to FIG. 17A to FIG. 18B, which are views showing epithelial cell line of normal liver treated with MPA+leptin for 24 hours and 48 hours respectively; and views showing STAT3- and MAPK-related signal paths after treating cell line of normal liver with MPA+leptin. As shown in the figures, after epithelial cell line of normal liver (THLE-3) is applied with MPA+leptin for […], MPA+leptin's effect on cell growth (i.e. survival rate) is analyzed through XTT assay. […] Besides, in FIG. 18A and FIG. 18B, protein expressions for STAT- and MAPK-related signal paths are analyzed.

In experiment [2] the target is T1, leptin receptor and progesterone receptor (Homo sapiens, UniProt P06401).
T1 construct: endogenous in cells
T1 sequence (P06401 1-933): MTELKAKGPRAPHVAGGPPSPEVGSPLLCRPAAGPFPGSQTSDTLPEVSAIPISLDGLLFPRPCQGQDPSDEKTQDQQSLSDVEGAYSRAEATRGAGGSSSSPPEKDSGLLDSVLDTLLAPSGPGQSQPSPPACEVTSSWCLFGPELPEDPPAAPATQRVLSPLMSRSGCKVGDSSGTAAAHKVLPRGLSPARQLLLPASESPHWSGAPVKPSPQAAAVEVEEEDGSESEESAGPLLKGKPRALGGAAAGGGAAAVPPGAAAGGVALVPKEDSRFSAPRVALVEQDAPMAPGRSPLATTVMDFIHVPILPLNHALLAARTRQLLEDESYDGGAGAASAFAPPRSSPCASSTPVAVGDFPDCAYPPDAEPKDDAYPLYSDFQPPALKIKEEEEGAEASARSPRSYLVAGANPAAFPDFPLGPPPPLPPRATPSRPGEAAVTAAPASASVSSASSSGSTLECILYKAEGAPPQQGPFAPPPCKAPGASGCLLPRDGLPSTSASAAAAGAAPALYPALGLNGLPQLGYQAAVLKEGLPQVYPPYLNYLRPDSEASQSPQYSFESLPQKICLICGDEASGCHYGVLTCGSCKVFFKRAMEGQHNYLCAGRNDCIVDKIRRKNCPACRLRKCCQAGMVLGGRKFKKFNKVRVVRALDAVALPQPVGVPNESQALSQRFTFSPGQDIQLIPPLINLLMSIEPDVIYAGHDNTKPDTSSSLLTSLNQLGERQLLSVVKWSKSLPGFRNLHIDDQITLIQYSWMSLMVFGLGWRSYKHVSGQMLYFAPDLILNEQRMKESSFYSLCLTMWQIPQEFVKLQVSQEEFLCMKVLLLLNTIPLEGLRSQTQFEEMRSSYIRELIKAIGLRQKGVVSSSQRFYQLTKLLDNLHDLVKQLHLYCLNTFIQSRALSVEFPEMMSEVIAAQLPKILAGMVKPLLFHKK
T1 sequence (P48357 22-1165 partner): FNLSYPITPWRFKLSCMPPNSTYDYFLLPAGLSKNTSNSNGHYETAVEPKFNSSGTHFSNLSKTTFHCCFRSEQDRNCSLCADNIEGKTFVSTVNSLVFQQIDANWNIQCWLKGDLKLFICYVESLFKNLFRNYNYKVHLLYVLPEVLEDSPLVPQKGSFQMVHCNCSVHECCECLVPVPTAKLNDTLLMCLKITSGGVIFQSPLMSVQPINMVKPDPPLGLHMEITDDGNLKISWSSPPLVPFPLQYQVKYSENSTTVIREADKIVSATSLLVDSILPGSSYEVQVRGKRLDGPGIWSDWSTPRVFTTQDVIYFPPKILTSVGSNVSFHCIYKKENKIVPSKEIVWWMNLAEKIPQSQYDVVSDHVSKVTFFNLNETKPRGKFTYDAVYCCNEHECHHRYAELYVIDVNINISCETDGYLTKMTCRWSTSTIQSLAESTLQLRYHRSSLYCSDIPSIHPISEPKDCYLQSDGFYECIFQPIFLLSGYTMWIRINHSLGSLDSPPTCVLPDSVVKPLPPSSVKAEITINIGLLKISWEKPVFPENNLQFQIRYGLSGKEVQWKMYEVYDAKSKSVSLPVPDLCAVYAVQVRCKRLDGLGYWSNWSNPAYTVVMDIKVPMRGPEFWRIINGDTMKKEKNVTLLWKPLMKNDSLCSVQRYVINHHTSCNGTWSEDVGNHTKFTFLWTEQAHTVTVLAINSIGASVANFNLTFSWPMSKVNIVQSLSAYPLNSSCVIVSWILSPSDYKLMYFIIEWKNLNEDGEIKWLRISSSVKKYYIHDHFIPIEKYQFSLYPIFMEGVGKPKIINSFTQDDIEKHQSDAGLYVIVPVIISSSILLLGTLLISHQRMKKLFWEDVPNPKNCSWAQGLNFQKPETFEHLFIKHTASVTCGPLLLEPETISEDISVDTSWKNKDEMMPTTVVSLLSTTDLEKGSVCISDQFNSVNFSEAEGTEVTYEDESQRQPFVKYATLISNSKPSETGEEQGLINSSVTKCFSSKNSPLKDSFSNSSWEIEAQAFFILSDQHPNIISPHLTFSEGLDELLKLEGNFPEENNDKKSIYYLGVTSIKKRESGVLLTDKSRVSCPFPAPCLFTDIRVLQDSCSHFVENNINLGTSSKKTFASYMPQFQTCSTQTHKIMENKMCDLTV
Nature of the experiment: Immunoprecipitation and immunofluorescent staining, receptor interaction. In kind it is cell-based. As to the method:
Please refer to FIG. 8A and FIG. 8B, which are views showing interaction between a leptin receptor and a progesterone receptor through immunoprecipitation and immunofluorescent staining. As shown in the figures, for acknowledging interaction between a leptin receptor and a progesterone receptor, cellular proteins are processed through immunoprecipitation and western blotting with anti-pgR after liver cancer cells are applied with leptin only, MPA only and MPA+leptin for 30 minutes separately. […] The same results are shown through immunofluorescent staining. After the cells are processed for 10 minutes, the progesterone receptor is dyed with FITC; the leptin receptor is dyed with Texas-Red; and cell membrane is dyed with phalloidin, which are observed with fluoresce microscope under 40×. […] Thus, it is confirmed that the leptin receptor and the progesterone receptor interact to work on the liver cancer cells.

For `CC(=O)O[C@]1(C(C)=O)CC[C@H]2[C@@H]3C[C@H](C)C4=CC(=O)CC[C@]4(C)[C@H]3CC[C@@]21C` [MPA, medroxyprogesterone acetate], in experiment [1], the “effect on STAT- and MAPK-related signal proteins” value is listed as “no obvious effect”. In experiment [2] (10 minutes, immunofluorescent staining), the “merged level between leptin receptor and progesterone receptor” value was “some of the leptin receptor are merged with some of the progesterone receptor”. Moreover, the “interaction of leptin receptor and progesterone receptor” value in experiment [2] (30 minutes, immunoprecipitation and western blotting with anti-pgR) is listed as “interacted”.
